Consider 19 molecules from US20060100431A1, “Biologically active compounds” (Amura Therapeutics Limited, priority 2002, published 2006).

What all share (format): biochemical
One assay addresses Wild-type cruzipain (Trypanosoma cruzi, UniProt P25779). As to the kind of experiment: Trypanosoma cruzi cruzipain peptidase activity assay (Ki). The procedure, abridged: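 Native cruzipain from T. cruzi Dm28 epimastigotes, 2.5 nM, in 100 mM sodium phosphate pH 6.75 with 1 mM EDTA and 10 mM L-cysteine, 25 °C, DMSO <1%. Rates taken from continuous fluorogenic substrate read; Ki by regression assuming reversible pure-competitive inhibition.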

The target of the next assay is T1, human cathepsin L (Homo sapiens, UniProt P07711).
T1 construct: purchased CN Biosciences
The assay can be described thus: Cathepsin L peptidase activity assay (Ki). The procedure, abridged:
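Run at 25±1° C with DMSO under 1%: buffer was 10 mM BTP pH 6.5 containing 1 mM EDTA, 1 mM CaCl2 and 5 mM 2-mercaptoethanol. Enzyme (1 nM cathepsin L) was added last to start hydrolysis of Ac-Phe-Arg-AMC held at KM^app (~20 μM), followed kinetically by fluorescence at 365/450 nm.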

The next assay concerns the target T2, CPB2.8ΔCTE (Leishmania mexicana, UniProt P36400).
T2 construct: Wild-type recombinant CPB without the C-terminal extention (i.e. CPB2.8ΔCTE); Dr. Jeremy Mottram (Wellcome Centre for Molecular Parasitology, University of Glasgow)
As to the kind of experiment: Leishmania mexicana cysteine protease B (CPB) peptidase activity assay (Ki). The essentials:
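Apparent Ki was derived by regression of activity against inhibitor concentration, assuming pure-competitive reversible binding. Reaction: 0.25 nM CPB lacking the C-terminal extension, pH 5.5 acetate buffer (1 mM EDTA, 200 mM NaCl, 10 mM DTT), 25 °C, followed by continuous substrate fluorescence.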

[1] abbreviates: Table 5, read-out: Ki Cruzipain.
Where [2] appears, read: read-out: Ki, inhibitors of cruzain and cruzipains.
[3] abbreviates: Table 5, read-out: Ki Human Cathepsin L.
Where [4] appears, read: Ki, inhibitors of Leismania mexicana CPB protease.
Setting [5] is: read-out: Ki, inhibitors of cathepsin L.

Each structure is given as a SMILES string. Where two headings read alike, the source gives them in different places.

Chain of Wild-type cruzipain (P25779 whole entry): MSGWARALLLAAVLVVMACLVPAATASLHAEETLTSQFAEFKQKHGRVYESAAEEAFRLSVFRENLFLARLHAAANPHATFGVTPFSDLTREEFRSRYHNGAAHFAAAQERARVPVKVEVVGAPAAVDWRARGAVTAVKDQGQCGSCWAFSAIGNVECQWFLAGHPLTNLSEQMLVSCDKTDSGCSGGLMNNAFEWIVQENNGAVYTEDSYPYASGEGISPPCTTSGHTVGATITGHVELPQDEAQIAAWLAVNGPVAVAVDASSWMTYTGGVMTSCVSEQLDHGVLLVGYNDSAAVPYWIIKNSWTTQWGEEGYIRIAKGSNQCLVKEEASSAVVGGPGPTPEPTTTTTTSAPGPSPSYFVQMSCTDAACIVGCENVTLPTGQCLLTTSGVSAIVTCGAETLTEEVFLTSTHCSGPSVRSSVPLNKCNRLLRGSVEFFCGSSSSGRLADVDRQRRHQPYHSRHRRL
T2 sequence (P36400 126-343, stated change not applied): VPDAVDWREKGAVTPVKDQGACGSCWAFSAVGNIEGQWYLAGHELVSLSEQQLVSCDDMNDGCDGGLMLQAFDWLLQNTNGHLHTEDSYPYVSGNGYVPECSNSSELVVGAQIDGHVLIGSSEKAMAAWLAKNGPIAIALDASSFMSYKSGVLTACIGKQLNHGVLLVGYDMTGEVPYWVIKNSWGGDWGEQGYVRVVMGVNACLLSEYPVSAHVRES
T1 sequence (P07711 114-333): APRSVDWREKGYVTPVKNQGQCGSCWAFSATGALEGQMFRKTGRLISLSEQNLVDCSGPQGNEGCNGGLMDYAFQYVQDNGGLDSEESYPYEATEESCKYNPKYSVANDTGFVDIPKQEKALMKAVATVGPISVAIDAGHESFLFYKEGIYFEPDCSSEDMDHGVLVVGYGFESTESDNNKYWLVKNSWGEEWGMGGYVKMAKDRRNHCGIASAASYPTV

Broadly, the Ki is the equilibrium dissociation constant of an inhibitor or competing ligand from its target. As for `CC(C)C[C@H](NC(=O)c1ccc(-c2cccs2)cc1)C(=O)N1CC[C@@H]2[C@H]1C(=O)CN2C(=O)c1ccccc1` [Example 2, (3aR,6aS)-N-[(1S)-1-(4-Benzoyl-6-oxo-hexahydro-pyrrolo[3,2-b]pyrrole-1-carbonyl)-3-methyl-butyl]-4-thiophen-2-yl-benzamide], the Ki on Wild-type cruzipain (setting [1]) is above 0.3 µM; on Wild-type cruzipain (setting [2]), below 5 µM; on human cathepsin L (setting [3]), above 3 µM; on CPB2.8ΔCTE (Ki CPB, Table 5), above 0.2 µM; on CPB2.8ΔCTE (setting [4]), below 5 µM.
As to `CC(C)C[C@H](NC(=O)c1cc2ccccc2s1)C(=O)N1CC[C@@H]2[C@H]1C(=O)CN2C(=O)c1ccccc1` [Example 7, (3aR,6aS)-Benzo[b]thiophene-2-carboxylic acid [(1S)-1-(4-benzoyl-6-oxo-hexahydro-pyrrolo[3,2-b]pyrrole-1-carbonyl)-3-methyl-butyl]-amide], the Ki at Wild-type cruzipain (setting [2]) and on human cathepsin L (setting [5]) was below 5 µM each time.
On to `CC(C)C[C@H](NC(=O)c1ccc(N(C)C)cc1)C(=O)N1CC[C@@H]2[C@H]1C(=O)CN2C(=O)c1ccccc1` [Example 14, (3aR,6aS)-N-[(1S)-1-(4-Benzoyl-6-oxo-hexahydro-pyrrolo[3,2-b]pyrrole-1-carbonyl)-3-methyl-butyl]-4-dimethylamino-benzamide], for which the Ki on Wild-type cruzipain (setting [2]), on human cathepsin L (setting [5]) and at CPB2.8ΔCTE (setting [4]) was below 5 µM in each case.
`CC(C)C[C@H](NC(=O)c1cccc(N(C)C)c1)C(=O)N1CC[C@@H]2[C@H]1C(=O)CN2C(=O)c1cccc(S(C)(=O)=O)c1` [Example 59, (3aR,6aS)-3-Dimethylamino-N-{(1S)-1-[4-(3-methanesulfonyl-benzoyl)-6-oxo-hexahydro-pyrrolo[3,2-b]pyrrole-1-carbonyl]-3-methyl-butyl}-benzamide]: the inhibitory constant (Ki) on Wild-type cruzipain (setting [2]), on human cathepsin L (setting [5]) and at CPB2.8ΔCTE (setting [4]) was below 5 µM each time.
Consider `CC(C)C[C@H](NC(=O)c1ccc2c(c1)CCCN2)C(=O)N1CC[C@@H]2[C@H]1C(=O)CN2C(=O)c1ccccc1` [Example 87, (3aR,6aS)-1,2,3,4-Tetrahydro-quinoline-6-carboxylic acid [(1S)-1-(4-benzoyl-6-oxo-hexahydro-pyrrolo[3,2-b]pyrrole-1-carbonyl)-3-methyl-butyl]-amide], for which the Ki at Wild-type cruzipain (setting [2]), on human cathepsin L (setting [5]) and at CPB2.8ΔCTE (setting [4]) was below 5 µM each time.
As for `CC(C)C[C@H](NC(=O)c1ccc2ncsc2c1)C(=O)N1CC[C@@H]2[C@H]1C(=O)CN2C(=O)c1ccccc1` [Example 90, (3aR,6aS)-Benzothiazole-6-carboxylic acid [(1S)-1-(4-benzoyl-6-oxo-hexahydro-pyrrolo[3,2-b]pyrrole-1-carbonyl)-3-methyl-butyl]-amide], the Ki at Wild-type cruzipain (setting [2]), at human cathepsin L (setting [5]) and at CPB2.8ΔCTE (setting [4]) was below 5 µM throughout.
For `CC(C)C[C@H](NC(=O)c1ccc(-n2cccn2)cc1)C(=O)N1CC[C@@H]2[C@H]1C(=O)CN2C(=O)c1ccccc1` [Example 91, (3aR,6aS)-N-[(1S)-1-(4-Benzoyl-6-oxo-hexahydro-pyrrolo[3,2-b]pyrrole-1-carbonyl)-3-methyl-butyl]-4-pyrazol-1-yl-benzamide], the Ki at Wild-type cruzipain (setting [2]), at human cathepsin L (setting [5]) and on CPB2.8ΔCTE (setting [4]) was below 5 µM in each case.
For `CC(C)C[C@H](NC(=O)c1ccc(N(C)C)cc1)C(=O)N1CC[C@@H]2[C@H]1C(=O)CN2C(=O)c1csc2ccccc12` [Example 103, (3aR,6aS)-N-{(1S)-1-[4-(Benzo[b]thiophene-3-carbonyl)-6-oxo-hexahydro-pyrrolo[3,2-b]pyrrole-1-carbonyl]-3-methyl-butyl}-4-dimethylamino-benzamide], the Ki at Wild-type cruzipain (setting [2]), at human cathepsin L (setting [5]) and at CPB2.8ΔCTE (setting [4]) was below 5 µM in each case.
Take `CC(=O)N[C@@H](CC(C)C)C(=O)N1CC(=O)[C@@H]2[C@H]1CCN2C(=O)[C@H](CC(C)C)NC(=O)c1ccc(N(C)C)cc1` [Example 151, (3aR,6aS)-N-{(1S)-1-[4-((2S)-2-Acetylamino-4-methyl-pentanoyl)-6-oxo-hexahydro-pyrrolo[3,2-b]pyrrole-1-carbonyl]-3-methyl-butyl}-4-dimethylamino-benzamide]: the Ki on Wild-type cruzipain (setting [2]), at human cathepsin L (setting [5]) and on CPB2.8ΔCTE (setting [4]) was below 5 µM in each case.
For `CC(C)C[C@H](NC(=O)c1ccc(N(C)C)cc1)C(=O)N1CC[C@@H]2[C@H]1C(=O)CN2C(=O)[C@@H](NC(=O)OCc1ccccc1)C(C)C` [Example 158, (3aS,6aR)-((S)-1-{4-[(2S)-2-(4-Dimethylamino-benzoylamino)-4-methyl-pentanoyl]-3-oxo-hexahydro-pyrrolo[3,2-b]pyrrole-1-carbonyl}-2-methyl-propyl)-carbamic acid benzyl ester], the inhibitory constant (Ki) at Wild-type cruzipain (setting [2]), on human cathepsin L (setting [5]) and on CPB2.8ΔCTE (setting [4]) was below 5 µM in each case.
Take `CC(C)C[C@H](NC(=O)c1ccc(OC(F)(F)F)cc1)C(=O)N1CC[C@@H]2[C@H]1C(=O)CN2C(=O)c1ccccc1` [Example 173, (3aR,6aS)-N-[(1S)-1-(4-Benzoyl-6-oxo-hexahydro-pyrrolo[3,2-b]pyrrole-1-carbonyl)-3-methyl-butyl]-4-trifluoromethoxy-benzamide]: the Ki at Wild-type cruzipain (setting [2]), on human cathepsin L (setting [5]) and on CPB2.8ΔCTE (setting [4]) was below 5 µM throughout.
Consider `CC(C)C[C@H](NC(=O)c1ccc(N2CCNCC2)cc1)C(=O)N1CC[C@@H]2[C@H]1C(=O)CN2C(=O)c1ccccc1` [Example 194, (3aR,6aS)-N-[(1S)-1-(4-Benzoyl-6-oxo-hexahydro-pyrrolo[3,2-b]pyrrole-1-carbonyl)-3-methyl-butyl]-4-piperazin-1-yl-benzamide], for which the inhibitory constant (Ki) on Wild-type cruzipain (setting [2]), at human cathepsin L (setting [5]) and on CPB2.8ΔCTE (setting [4]) was below 5 µM throughout.
For the molecule `CC(C)C[C@H](NC(=O)c1cccc(N2CCNCC2)c1)C(=O)N1CC[C@@H]2[C@H]1C(=O)CN2C(=O)c1ccccc1` [Example 247, (3aR,6aS)-N-[(1S)-1-(4-Benzoyl-6-oxo-hexahydro-pyrrolo[3,2-b]pyrrole-1-carbonyl)-3-methyl-butyl]-3-piperazin-1-yl-benzamide], the Ki at Wild-type cruzipain (setting [2]), at human cathepsin L (setting [5]) and at CPB2.8ΔCTE (setting [4]) was below 5 µM throughout.
For `CC(C)C[C@H](NC(=O)c1ccc(C(C)(C)C)cc1)C(=O)N1NC[C@@H]2[C@H]1C(=O)CN2C(=O)c1ccccc1` [Example 249a, (3aR,6aS)-N-[(1S)-1-(4-benzoyl-6-oxo-hexahydropyrrolo[3,2-c]pyrazole-1-carbonyl)-3-methylbutyl]-4-tert-butylbenzamide], the Ki on Wild-type cruzipain (setting [2]), on human cathepsin L (setting [5]) and at CPB2.8ΔCTE (setting [4]) was below 5 µM throughout.
Consider `CC(C)CC(NC(=O)c1ccc(N)cc1)C(=O)N1NC[C@@H]2[C@H]1C(=O)CN2C(=O)c1ccccc1` (stereo partly drawn) [Example 249b, (3aR,6aS)-4-amino-N-[1-(4-benzoyl-6-oxo-hexahydropyrrolo[3,2-c]pyrazole-1-carbonyl)-3-methylbutyl)benzamide], for which the Ki on Wild-type cruzipain (setting [2]), at human cathepsin L (setting [5]) and on CPB2.8ΔCTE (setting [4]) was below 5 µM in each case.
`CC(C)C[C@H](NC(=O)c1ccc(N)cc1)C(=O)N1NC[C@@H]2[C@H]1C(=O)CN2C(=O)c1cccc(S(C)(=O)=O)c1` [Example 249c, (3aR,6aS)-4-amino-N-{(1S)-1-[4-(3-methanesulfonylbenzoyl)-6-oxo-hexahydropyrrolo [3,2-c]pyrazole-1-carbonyl]-3-methylbutyl}benzamide]: the Ki at Wild-type cruzipain (setting [2]), at human cathepsin L (setting [5]) and on CPB2.8ΔCTE (setting [4]) was below 5 µM in each case.
As to `O=C(N[C@@H](CC1CCCCC1)C(=O)N1CC[C@@H]2[C@H]1C(=O)CN2C(=O)c1ccccc1)c1ccsc1` [Example 250, (3aR,6aS)-Thiophene-3-carboxylic acid [(1S)-2-(4-benzoyl-6-oxo-hexahydro-pyrrolo[3,2-b]pyrrole-1-yl)-1-cyclohexylmethyl-2-oxo-ethyl]-amide], the Ki was above 5 µM at Wild-type cruzipain (setting [1]); above 1 µM at human cathepsin L (setting [3]); below 5 µM at human cathepsin L (setting [5]); above 5 µM at CPB2.8ΔCTE (Ki CPB, Table 5).
Consider `O=C(N[C@@H](Cc1ccc(O)cc1)C(=O)N1CC[C@@H]2[C@H]1C(=O)CN2C(=O)c1ccccc1)c1cccc2ccccc12` [Example 296, (3aR,6aS)-Naphthalene-1-carboxylic acid [(1S)-2-(4-benzoyl-6-oxo-hexahydro-pyrrolo[3,2-b]pyrrole-1-yl)-1-(4-hydroxybenzyl)-2-oxo-ethyl]-amide], for which the Ki was above 1 µM on Wild-type cruzipain (setting [1]); below 5 µM at Wild-type cruzipain (setting [2]); below 0.2 µM at human cathepsin L (setting [3]); above 5 µM on CPB2.8ΔCTE (Ki CPB, Table 5).
For the molecule `CC(C)(C)c1ccc(C(=O)N[C@@H](Cc2ccc(O)cc2)C(=O)N2CC[C@@H]3[C@H]2C(=O)CN3C(=O)c2ccccc2)cc1` [Example 346, (3aR,6aS)-N-[(1S)-2-(4-Benzoyl-6-oxo-hexahydro-pyrrolo[3,2-b]pyrrol-1-yl)-1-(4-hydroxybenzyl)-2-oxo-ethyl]-4-tert-butyl-benzamide], the inhibition constant Ki at Wild-type cruzipain (setting [1]) was below 0.2 µM; on human cathepsin L (setting [3]), above 3 µM; at human cathepsin L (setting [5]), below 5 µM; at CPB2.8ΔCTE (Ki CPB, Table 5), above 5 µM.
